25 compounds from patent US20250136555A1 (HARBIN MEDISAN PHARMACEUTICAL CO., LTD., priority 2022, published 2025) can be followed below.

What all share (format): cell-based
Assay [1] concerns the target T1, PPARα (Homo sapiens, UniProt Q07869).
T1 construct: expressed in transfected cells; host or cells: COS-7
T1 sequence (Q07869 239-466 limits assumed): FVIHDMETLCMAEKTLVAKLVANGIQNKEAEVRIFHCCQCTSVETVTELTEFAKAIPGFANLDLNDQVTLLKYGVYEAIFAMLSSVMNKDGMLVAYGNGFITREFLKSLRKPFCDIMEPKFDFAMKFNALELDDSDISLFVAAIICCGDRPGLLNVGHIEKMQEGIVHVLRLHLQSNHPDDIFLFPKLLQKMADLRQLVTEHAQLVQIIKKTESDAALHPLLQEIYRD
Nature of the assay: GAL4 hybrid reporter gene method, PPARα agonistic activity. The settings on record: Cos-7 cells, Gal4-PPARα (LBD); GW7647 10 nM = 100%; 16 h. (In general: Reporter assays use an easily measured gene product as a stand-in for the process of interest.)
Method: (§1) Cos-7 cells (African green monkey kidney fibroblasts, commonly used tool cells) were cultured in a 10-cm cell culture dish with a DMEM complete medium containing 10% fetal bovine serum. When growing at a density of about 70%, the cells were ready for transfection. […] The working solution described above was then combined with 8 mL of the DMEM complete medium, and the mixture was added to the cell culture dish for cell transfection. After 4 h of transfection, the cells were digested, resuspended, and seeded into a 96-well plate at 25,000 cells/well. […] 10 μL of a reporter gene detection solution (purchased from Shanghai Beyotime Biological Tech. Co., Ltd.) was added. After the resulting solution was mixed and reacted, biological fluorescence was detected by using a multifunctional microplate reader, and corresponding half maximal effective concentration (EC50) values were calculated according to the detection values. […] Transfection working solutions for different nuclear receptors were prepared and added into COS-7 cells. The preparation method for the transfection working solution was as follows: the constructed pBIND-Gal4-PPARα (LBD) (or pBIND-Gal4-PPARδ (LBD) plasmid or pBIND-Gal4-PPARγ (LBD) plasmid or pBIND-Gal4-RARα (LBD) plasmid or pBIND-Gal4-RARγ (LBD) plasmid or pBIND-Gal4-RARβ (LBD) plasmid or pBIND-Gal4-RORα (LBD) plasmid or pBIND-Gal4-RORγ (LBD) plasmid or pBIND-Gal4-RORβ (LBD) plasmid or pBIND-Gal4-FXR (LBD) plasmid or pBIND-Gal4-RXRα.

For assay [2], the target named is T2, PPARδ (Homo sapiens, UniProt Q03181).
T2 construct: expressed in transfected cells; host or cells: COS-7
T2 sequence (Q03181 211-439 limits assumed): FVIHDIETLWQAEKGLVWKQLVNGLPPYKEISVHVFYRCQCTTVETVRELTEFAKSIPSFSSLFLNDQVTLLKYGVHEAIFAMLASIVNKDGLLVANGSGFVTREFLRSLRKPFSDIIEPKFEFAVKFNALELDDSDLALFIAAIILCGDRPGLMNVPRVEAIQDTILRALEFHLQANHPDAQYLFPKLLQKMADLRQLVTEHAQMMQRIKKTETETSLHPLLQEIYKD
Nature of the assay: GAL4 hybrid reporter gene method, PPARδ agonistic activity.
Method: as §1

Assay [3] concerns the target T3, PPARγ (Homo sapiens, UniProt P37231).
T3 construct: expressed in transfected cells; host or cells: COS-7
T3 sequence (P37231 238-503 limits assumed): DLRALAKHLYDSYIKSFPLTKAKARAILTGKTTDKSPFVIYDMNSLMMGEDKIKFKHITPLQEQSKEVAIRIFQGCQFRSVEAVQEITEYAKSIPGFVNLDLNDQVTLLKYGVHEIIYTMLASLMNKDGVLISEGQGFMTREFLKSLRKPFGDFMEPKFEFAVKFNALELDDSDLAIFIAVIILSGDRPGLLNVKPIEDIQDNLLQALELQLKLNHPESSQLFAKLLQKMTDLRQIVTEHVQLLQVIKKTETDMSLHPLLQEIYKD
The assay is described as follows: GAL4 hybrid reporter gene method, PPARγ agonistic activity.

Setting [4] is: Cos-7 cells, Gal4-PPARδ (LBD), GW501516 10 nM = 100%, 16 h.
Setting [5] is: Cos-7 cells, Gal4-PPARγ (LBD), Rosiglitazone 1 μM = 100%, 16 h.

In general, EC50 refers to the concentration at which the effect is half-maximal. Read a high EC50 as lower potency in that assay.

Read-outs that look alike come from different tables or passages of the source. Bounds are passed on as bounds.

Regarding `CC(C)(Oc1ccc(CN2C(=O)CN(c3ccc(C(F)(F)F)cc3)C2=O)cc1C(F)(F)F)C(=O)O` [Compound 11, 2-(4-((2,5-Dioxo-3-(4-(trifluoromethyl)phenyl)imidazolidin-1-yl)methyl)-2-(trifluoromethyl)phenoxy)-2-methylpropionic Acid], the 50% effective concentration (EC50) in assay [1] stood at 77.1 nM; in assay [2], 33.1 nM; in assay [3] it was 2480 nM.
As to `Cc1cc(CN2C(=O)CN(c3ccc(F)cc3)C2=O)cc(C)c1OC(C)(C)C(=O)O` [Compound 25, 2-(4-((3-(4-Fluorophenyl)-2,5-dioxoimidazolin-1-yl)methyl)-2,6-dimethylphenoxy)-2-methylpropionic Acid], the EC50 in assay [1] was determined as 101 nM; in assay [2] (setting [4]), 72.3 nM; in assay [3] (setting [5]), 3640 nM.
Consider `CC(C)(Oc1ccc(CN2C(=O)CN(c3ccc(C(F)(F)F)cc3)C2=O)cc1)C(=O)O` [Compound 59, 2-(4-((2,5-Dioxo-3-(4-(trifluoromethyl)phenyl)imidazolin-1-yl)methyl)phenoxy)-2-methylpropionic Acid], for which the EC50 in assay [1] is 277 nM; in assay [2] (setting [4]), 359 nM; in assay [3], more than 5000 nM.
On to `Cc1cc(CN2C(=O)CN(c3ccc(C=O)cc3)C2=O)cc(C)c1OC(C)(C)C(=O)O` [Compound 99], for which the EC50 in assay [1] was 402 nM; in assay [2], more than 5000 nM; in assay [3], more than 5000 nM.
Take `Cc1cc(CN2C(=O)CN(c3ccc(OC(F)(F)F)cc3)C2=O)cc(C)c1OC(C)(C)C(=O)O` [Compound 3, 2-(4-((2,5-Dioxo-3-(4-(trifluoromethoxy)phenyl)imidazolidin-1-yl)methyl)-2,6-dimethylphenoxy)-2-methylpropionic Acid]: the EC50 in assay [2] (setting [4]) was 4.4 nM; in assay [3] it was 4150 nM. For the same compound, the “PPARδ EC50 (nM)” value in assay [2] (setting [4]) is recorded as “low nanomolar levels”.
As to `Cc1cc(CN2C(=O)CN(c3ccc(C(F)(F)F)cc3)C2=O)ccc1OCC(=O)O` [Compound 9, 2-(4-((2,5-Dioxo-3-(4-(trifluoromethyl)phenyl)imidazolidin-1-yl)methyl)-2-methylphenoxy)acetic Acid], the EC50 in assay [1] is 994 nM; in assay [2], 976 nM; in assay [3], more than 5000 nM.
The compound `CC(C)(Oc1c(Cl)cc(CN2C(=O)CN(c3ccc(C(F)(F)F)cc3)C2=O)cc1Cl)C(=O)O` [Compound 17, 2-(2,6-Dichloro-4-((2,5-dioxo-3-(4-(trifluoromethyl)phenyl)imidazolidin-1-yl)methyl)phenoxy)-2-methylpropionic Acid] came in with an EC50 in assay [2] (setting [4]) of 24.8 nM.
Regarding `Cc1cc(CN2C(=O)CN(c3ccc(C4CC4)cc3)C2=O)cc(C)c1OC(C)(C)C(=O)O` [Compound 101], the EC50 in assay [1] was 1 nM; in assay [2], 10.2 nM; in assay [3] it was 313 nM. For the same compound, the “PPARα EC50 (nM)” value in assay [1] is given as “low nanomolar levels”. The “PPARδ EC50 (nM)” value in assay [2] (setting [4]) was “low nanomolar levels”.
For the compound `Cc1cc(CN2C(=O)CN(c3ccc(Br)cc3)C2=O)cc(C)c1OC(C)(C)C(=O)O` [Compound 61, 2-(4-((3-(4-Bromophenyl)-2,5-dioxoimidazolin-1-yl)methyl)-2,6-dimethylphenoxy)-2-methylpropionic Acid], in assay [1], a half-maximal effect (EC50) was put at 3.9 nM and the “PPARα EC50 (nM)” value is “low nanomolar levels”. In assay [3] (setting [5]), a half-maximal effect (EC50) was put at 1200 nM.
As to `Cc1cc(CN2C(=O)CN(c3ccc(C(F)(F)F)cc3)C2=O)cc(C)c1OC(C)C(=O)O` (stereo not drawn) [Compound 63, 2-(4-((2,5-Dioxo-3-(4-(trifluoromethyl)phenyl)imidazolin-1-yl)methyl)-2,6-dimethylphenoxy)propionic Acid], the half-maximal effective concentration (EC50) amounted to 25.1 nM in assay [1] and 4 nM in assay [2].
For the compound `Cc1ccc(N2CC(=O)N(Cc3cc(C)c(OC(C)(C)C(=O)O)c(C)c3)C2=O)cc1` [Compound 23, 2-(4-((2,5-Dioxo-3-(4-methylphenyl)imidazolin-1-yl)methyl)-2,6-dimethylphenoxy)-2-methylpropionic Acid], the EC50 in assay [1] was 26.5 nM; in assay [2] (setting [4]), 25.7 nM; in assay [3] (setting [5]) it was 629 nM.
As to `Cc1cc(CN2C(=O)CN(c3ccc(Cl)cc3)C2=O)cc(C)c1OC(C)(C)C(=O)O` [Compound 27, 2-(4-((3-(4-Chlorophenyl)-2,5-dioxoimidazolin-1-yl)methyl)-2,6-dimethylphenoxy)-2-methylpropionic Acid], the EC50 amounted to 17 nM in assay [1] and 1420 nM in assay [3] (setting [5]).
In the case of `Cc1cc(CN2C(=O)N(c3ccc(C(F)(F)F)cc3)C(C)(C)C2=O)cc(C)c1OC(C)(C)C(=O)O` [Compound 5, 2-(4-((4,4-Dimethyl-2,5-dioxo-3-(4-(trifluoromethyl)phenyl)imidazolin-1-yl)methyl)-2,6-dimethylphenoxy)-2-methylpropionic Acid], the EC50 in assay [1] came to 252 nM; in assay [2] (setting [4]) it was 60 nM.
On to `COc1ccc(N2CC(=O)N(Cc3cc(C)c(OC(C)(C)C(=O)O)c(C)c3)C2=O)cc1` [Compound 39, 2-(4-((3-(4-Methoxyphenyl)-2,5-dioxoimidazolin-1-yl)methyl)-2,6-dimethylphenoxy)-2-methylpropionic Acid], for which the results for the half-maximal effective concentration (EC50) in assay [1], in assay [2] (setting [4]) and in assay [3] (setting [5]) were 18.8 nM, 36.1 nM and 3370 nM, respectively.
Regarding `CC(C)(Oc1c(F)cc(CN2C(=O)CN(c3ccc(C(F)(F)F)cc3)C2=O)cc1F)C(=O)O` [Compound 21, 2-(4-((2,5-Dioxo-3-(4-(trifluoromethyl)phenyl)imidazolin-1-yl)methyl)-2,6-difluorophenoxy)-2-methylpropionic Acid], the EC50 in assay [1] was 42.9 nM; in assay [2] (setting [4]), 101 nM; in assay [3], more than 5000 nM.
With `CCc1ccc(N2CC(=O)N(Cc3cc(C)c(OC(C)(C)C(=O)O)c(C)c3)C2=O)cc1` [Compound 75, 2-(4-(3-(4-Ethylphenyl)-2,5-dioxoimidazolidin-1-yl)methyl)-2,6-dimethylphenoxy-2-methylpropionic Acid], in assay [1], the EC50 amounted to 1 nM and the “PPARα EC50 (nM)” value is recorded as “low nanomolar levels”. In assay [2] (setting [4]), the response was half-maximal at 6.3 nM (EC50) and the “PPARδ EC50 (nM)” value is recorded as “low nanomolar levels”.
`Cc1cc(CN2C(=O)CN(c3cccc(OC(F)(F)F)c3)C2=O)cc(C)c1OC(C)(C)C(=O)O` [Compound 109]: the EC50 in assay [1] was 31.7 nM; in assay [2], 15.1 nM; in assay [3], 363 nM.
As for `CCC(Oc1c(C)cc(CN2C(=O)CN(c3ccc(C(F)(F)F)cc3)C2=O)cc1C)C(=O)O` (stereo not drawn) [Compound 67, 2-(4-((2,5-Dioxo-3-(4-(trifluoromethyl)phenyl)imidazolin-1-yl)methyl)-2,6-dimethylphenoxy)butyric Acid], the EC50 in assay [1] was found to be 14.1 nM; in assay [2] it was 3.4 nM; in assay [3], 1920 nM.
`Cc1cc(CN2C(=O)CN(c3ccc(C(F)(F)F)c(F)c3)C2=O)cc(C)c1OC(C)(C)C(=O)O` [Compound 31, 2-(2,6-Dimethyl-4-((3-(3-fluoro-4-(trifluoromethyl)phenyl)-2,5-dioxoimidazolin-1-yl)methyl)phenoxy)-2-methylpropionic Acid]: the EC50 is 2.1 nM in assay [1] and 0.8 nM in assay [2] (setting [4]).
`Cc1cc(CN2C(=O)CN(c3ccc(C(C)C)cc3)C2=O)cc(C)c1OC(C)(C)C(=O)O` [Compound 65, 2-(4-((3-(4-Isopropylphenyl)-2,5-dioxoimidazolin-1-yl)methyl)-2,6-dimethylphenoxy)-2-methylpropionic Acid]: the EC50 is 0.8 nM in assay [1] and 971 nM in assay [3] (setting [5]).
As to `Cc1cc(CN2C(=O)CN(c3cccc(F)c3)C2=O)cc(C)c1OC(C)(C)C(=O)O` [Compound 103], the EC50 in assay [1] amounted to 102 nM; in assay [2], 97.6 nM; in assay [3], 474 nM.
As for `CSc1ccc(N2CC(=O)N(Cc3cc(C)c(OC(C)(C)C(=O)O)c(C)c3)C2=O)cc1` [Compound 43], the “PPARα EC50 (nM)” value in assay [1] is recorded as “low nanomolar levels”. The “PPARδ EC50 (nM)” value in assay [2] (setting [4]) was “low nanomolar levels”.
Consider `CC(C)(Oc1c(Br)cc(CN2C(=O)CN(c3ccc(C(F)(F)F)cc3)C2=O)cc1Br)C(=O)O` [Compound 19, 2-(2,6-Dibromo-4-((2,5-dioxo-3-(4-(trifluoromethyl)phenyl)imidazolidin-1-yl)methyl)phenoxy)-2-methylpropionic Acid], for which the half-maximal effective concentration (EC50) came to 2.2 nM in assay [1] and 23.6 nM in assay [2] (setting [4]).
`Cc1cc(CN2C(=O)N(c3ccc(OC(F)(F)F)cc3)C(C)(C)C2=O)cc(C)c1OC(C)(C)C(=O)O` [Compound 7]: the EC50 in assay [1] is 668 nM; in assay [2], 176 nM.
Consider `Cc1cc(CN2C(=O)CN(Cc3ccc(C(F)(F)F)cc3)C2=O)cc(C)c1OC(C)(C)C(=O)O` [Compound 93], for which the EC50 in assay [3] (setting [5]) is 1490 nM. In other words, the single-digit micromolar range.
